Source: US12052991B2, “Substituted pyridinyloxybenzenes and salts thereof and use thereof as herbicidal agents” (Bayer Aktiengesellschaft, priority 2018, dated 2024)

Key:
Assay type in all cases: in vivo
Lolium rigidum (LOLRI) [1] = experiment: Herbicidal post-emergence action (Table B2); details: rated visually after about 3 weeks, 100% = plants have died, 0% = like control plants
Procedure, shortened: (§1)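 Activity was scored visually against untreated plants roughly 3 weeks after treatment, 0% meaning like control and 100% plant death. Application was post-emergence onto green parts at the one-leaf stage, as aqueous suspension/emulsion with 0.5% additive, 600 l/ha, delivering 1280 or 320 g/ha to greenhouse plants in sandy loam.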

Stellaria media (STEME) [2] = experiment: Herbicidal pre-emergence action, test C (Table C8); details: visual scoring after about 3 weeks, 100% = plants have died, 0% = like control plants
Procedure, shortened: (§2)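 Visual percentage damage relative to untreated pots (0% = like control, 100% = dead) was rated roughly 3 weeks after pre-emergence treatment in the greenhouse. Sandy loam pots were sown with weed seeds and covered with soil. The surface was sprayed with WP or EC formulations plus 0.5% additive at 600 L/ha, delivering 1280 or 320 g/ha.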

[3] = tested on: Abutilon theophrasti (ABUTH); experiment: Herbicidal post-emergence action (Table B5); details: rated visually after about 3 weeks, 100% = plants have died, 0% = like control plants
Procedure, shortened: as §1

Stellaria media (STEME) [4] = experiment: Herbicidal post-emergence action (Table B8); details: visual rating about 3 weeks after treatment, 100% = plants have died, 0% = like control plants
Procedure, shortened: as §1

Setaria viridis (SETVI) [5] = experiment: Herbicidal post-emergence action (Table B4); details: rated visually after about 3 weeks, 100% = plants have died, 0% = like control plants
Procedure, shortened: as §1

Lolium rigidum (LOLRI) [6] = experiment: Herbicidal pre-emergence action, test C (Table C2); details: dosage 1280 g/ha; visual scoring after about 3 weeks; 100% = plants have died, 0% = like control plants
Procedure, shortened: as §2

[7] = tested on: Amaranthus retroflexus (AMARE); experiment: Herbicidal post-emergence action (Table B6); details: visual rating about 3 weeks after treatment, 100% = plants have died, 0% = like control plants
Procedure, shortened: as §1

[8] = tested on: Echinochloa crus-galli (ECHCG); experiment: Herbicidal post-emergence action (Table B1); details: rated visually after about 3 weeks, 100% = plants have died, 0% = like control plants
Procedure, shortened: as §1

[9] = tested on: Echinochloa crus-galli (ECHCG); experiment: Herbicidal pre-emergence action, test C (Table C1); details: visual scoring after about 3 weeks, 100% = plants have died, 0% = like control plants
Procedure, shortened: as §2

Poa annua (POAAN) [10] = experiment: Herbicidal pre-emergence action, test C (Table C3); details: visual scoring after about 3 weeks, 100% = plants have died, 0% = like control plants
Procedure, shortened: as §2

[11] = tested on: harmful plants ABUTH, AMARE, ECHCG, LOLRI, MATIN, POAAN, SETVI, STEME, ALOMY, DIGSA, KCHSC and VERPE; experiment: Herbicidal post-emergence action, summary of Tables B1-B12; details: application rate of 1280 or 320 g of active ingredient per hectare; summary in words
Procedure, shortened: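 Activity scored by eye roughly 3 weeks post-treatment against untreated plants, from 0% (no effect) to 100% (plants dead). Application rates were 1280 or 320 g/ha, as aqueous WP/EC spray plus 0.5% additive at 600 L/ha, onto one-leaf-stage weeds grown 2–3 weeks in sandy loam.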

[12] = tested on: Abutilon theophrasti (ABUTH); experiment: Herbicidal pre-emergence action, test C (Table C5); details: visual scoring after about 3 weeks, 100% = plants have died, 0% = like control plants
Procedure, shortened: as §2

[13] = tested on: Amaranthus retroflexus (AMARE); experiment: Herbicidal pre-emergence action, test C (Table C6); details: visual scoring after about 3 weeks, 100% = plants have died, 0% = like control plants
Procedure, shortened: as §2

Setaria viridis (SETVI) [14] = experiment: Herbicidal pre-emergence action, test C (Table C4); details: visual scoring after about 3 weeks, 100% = plants have died, 0% = like control plants
Procedure, shortened: as §2

Poa annua (POAAN) [15] = experiment: Herbicidal post-emergence action (Table B3); details: rated visually after about 3 weeks, 100% = plants have died, 0% = like control plants
Procedure, shortened: as §1

[16] = tested on: harmful plants ABUTH, AMARE, ECHCG, LOLRI, MATIN, POAAN, SETVI, STEME, ALOMY, DIGSA, KCHSC and VERPE; experiment: Herbicidal pre-emergence action (test C), summary of Tables C1-C12; details: application rate of 1280 or 320 g of active ingredient per hectare; summary in words
Procedure, shortened: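 Visual % damage versus untreated plants (0% = like control, 100% = died) was scored after about 3 weeks in the greenhouse. Before emergence, seeds sown in sandy loam got a soil-surface spray of compound as WP or EC plus 0.5% additive, using 600 L/ha water at rates of 1280 or 320 g/ha.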

SMILES: Cc1cccc(Oc2ccc(Cl)cn2)c1-c1cc(C(F)F)no1 [Example 1-18, 5-[2-[(5-Chloro-2-pyridyl)oxy]-6-methylphenyl]-3-(difluoromethyl)isoxazole]
- Post-emergence action against Lolium rigidum (LOLRI) (Lolium rigidum (LOLRI) [1]; 320 g/ha): 90%
- Post-emergence action against Lolium rigidum (LOLRI) (Lolium rigidum (LOLRI) [1]; 1280 g/ha): 100%
- Pre-emergence action against Stellaria media (STEME) (Stellaria media (STEME) [2]; dosage 320 g/ha): 100%
- Pre-emergence action against Stellaria media (STEME) (Stellaria media (STEME) [2]; dosage 1280 g/ha): 100%
- Post-emergence action against Abutilon theophrasti (ABUTH) ([3]; 320 g/ha): 100%
- Post-emergence action against Abutilon theophrasti (ABUTH) ([3]; 1280 g/ha): 100%
- Post-emergence action against Stellaria media (STEME) (Stellaria media (STEME) [4]; dosage 320 g/ha): 100%
- Post-emergence action against Stellaria media (STEME) (Stellaria media (STEME) [4]; dosage 1280 g/ha): 100%
- Post-emergence action against Setaria viridis (SETVI) (Setaria viridis (SETVI) [5]; 320 g/ha): 100%
- Post-emergence action against Setaria viridis (SETVI) (Setaria viridis (SETVI) [5]; 1280 g/ha): 100%
- Pre-emergence action against Lolium rigidum (LOLRI) (Lolium rigidum (LOLRI) [6]): 90%
- Post-emergence action against Amaranthus retroflexus (AMARE) ([7]; dosage 320 g/ha): 100%
- Post-emergence action against Amaranthus retroflexus (AMARE) ([7]; dosage 1280 g/ha): 100%
- Post-emergence action against Echinochloa crus-galli (ECHCG) ([8]; 320 g/ha): 100%
- Post-emergence action against Echinochloa crus-galli (ECHCG) ([8]; 1280 g/ha): 100%
- Pre-emergence action against Echinochloa crus-galli (ECHCG) ([9]; dosage 320 g/ha): 90%
- Pre-emergence action against Echinochloa crus-galli (ECHCG) ([9]; dosage 1280 g/ha): 100%
- Pre-emergence action against Poa annua (POAAN) (Poa annua (POAAN) [10]; dosage 320 g/ha): 90%
- Pre-emergence action against Poa annua (POAAN) (Poa annua (POAAN) [10]; dosage 1280 g/ha): 100%
- herbicidal activity against the harmful plants of Tables B1-B12 in post-emergence treatment [11]: very good herbicidal activity
- Pre-emergence action against Abutilon theophrasti (ABUTH) ([12]; dosage 320 g/ha): 100%
- Pre-emergence action against Abutilon theophrasti (ABUTH) ([12]; dosage 1280 g/ha): 100%
- Pre-emergence action against Amaranthus retroflexus (AMARE) ([13]; dosage 320 g/ha): 100%
- Pre-emergence action against Amaranthus retroflexus (AMARE) ([13]; dosage 1280 g/ha): 100%
- Pre-emergence action against Setaria viridis (SETVI) (Setaria viridis (SETVI) [14]; dosage 320 g/ha): 100%
- Pre-emergence action against Setaria viridis (SETVI) (Setaria viridis (SETVI) [14]; dosage 1280 g/ha): 100%
- Post-emergence action against Poa annua (POAAN) (Poa annua (POAAN) [15]; 320 g/ha): 100%
- Post-emergence action against Poa annua (POAAN) (Poa annua (POAAN) [15]; 1280 g/ha): 100%
- herbicidal activity against the harmful plants of Tables C1-C12 in pre-emergence treatment [16]: very good herbicidal activity

SMILES: Cc1cccc(Oc2ncc(Cl)cc2F)c1-c1cc(C(F)F)no1 [Example 1-20]
- Post-emergence action against Lolium rigidum (LOLRI) (Lolium rigidum (LOLRI) [1]; 320 g/ha): 90%
- Post-emergence action against Lolium rigidum (LOLRI) (Lolium rigidum (LOLRI) [1]; 1280 g/ha): 90%
- Pre-emergence action against Stellaria media (STEME) (Stellaria media (STEME) [2]; dosage 320 g/ha): 100%
- Pre-emergence action against Stellaria media (STEME) (Stellaria media (STEME) [2]; dosage 1280 g/ha): 100%
- Post-emergence action against Abutilon theophrasti (ABUTH) ([3]; 320 g/ha): 100%
- Post-emergence action against Abutilon theophrasti (ABUTH) ([3]; 1280 g/ha): 100%
- Post-emergence action against Stellaria media (STEME) (Stellaria media (STEME) [4]; dosage 320 g/ha): 100%
- Post-emergence action against Stellaria media (STEME) (Stellaria media (STEME) [4]; dosage 1280 g/ha): 100%
- Pre-emergence action against Lolium rigidum (LOLRI) (Lolium rigidum (LOLRI) [6]): 90%
- Post-emergence action against Amaranthus retroflexus (AMARE) ([7]; dosage 320 g/ha): 100%
- Post-emergence action against Amaranthus retroflexus (AMARE) ([7]; dosage 1280 g/ha): 100%
- Post-emergence action against Echinochloa crus-galli (ECHCG) ([8]; 320 g/ha): 100%
- Post-emergence action against Echinochloa crus-galli (ECHCG) ([8]; 1280 g/ha): 100%
- Pre-emergence action against Echinochloa crus-galli (ECHCG) ([9]; dosage 320 g/ha): 90%
- Pre-emergence action against Echinochloa crus-galli (ECHCG) ([9]; dosage 1280 g/ha): 90%
- Pre-emergence action against Poa annua (POAAN) (Poa annua (POAAN) [10]; dosage 320 g/ha): 90%
- Pre-emergence action against Poa annua (POAAN) (Poa annua (POAAN) [10]; dosage 1280 g/ha): 90%
- herbicidal activity against the harmful plants of Tables B1-B12 in post-emergence treatment [11]: very good herbicidal activity
- Pre-emergence action against Abutilon theophrasti (ABUTH) ([12]; dosage 320 g/ha): 90%
- Pre-emergence action against Abutilon theophrasti (ABUTH) ([12]; dosage 1280 g/ha): 100%
- Pre-emergence action against Amaranthus retroflexus (AMARE) ([13]; dosage 320 g/ha): 100%
- Pre-emergence action against Amaranthus retroflexus (AMARE) ([13]; dosage 1280 g/ha): 100%
- Pre-emergence action against Setaria viridis (SETVI) (Setaria viridis (SETVI) [14]; dosage 320 g/ha): 100%
- Pre-emergence action against Setaria viridis (SETVI) (Setaria viridis (SETVI) [14]; dosage 1280 g/ha): 100%
- Post-emergence action against Poa annua (POAAN) (Poa annua (POAAN) [15]; 320 g/ha): 100%
- Post-emergence action against Poa annua (POAAN) (Poa annua (POAAN) [15]; 1280 g/ha): 100%
- herbicidal activity against the harmful plants of Tables C1-C12 in pre-emergence treatment [16]: very good herbicidal activity
